Measured values taken from patent US9295627B2 (priority 2011, dated 2016).
Where two headings read alike, the source gives them in different places.

Legend:
[1] = Acute toxicity test; details: female, BALB/c, mouse, in vivo, ip
Procedure: Two grams of any one of the adenosine N1-oxide obtained in Experiment 1, the 3′-glucosyladesonine N1-oxide and 5′-glucosyladenosine N1-oxide obtained in Experiment 2, and the 5′-adenosine diphosphate N1-oxide and 5′-adenosine triphosphate N1-oxide obtained in Experiment 3 was dissolved in 100 mL of D-PBS (Dulbecco's Phosphate-Buffered Salines). The resulting solution was intraperitoneally administered to 10 BALB/c female mice, six-week-old, with an average body mass of 20 g each, commercialized by Charles River Laboratories Japan, Inc., Kanagawa, Japan, at a dose of one milliliter/head, followed by observation for 24 hours. As a control, only D-PBS was intraperitoneally administered to 10 BALB/c female mice, six-week-old, with an average body mass of 20 g each, commercialized by Charles River Laboratories Japan, Inc., Kanagawa, Japan, at a dose of one milliliter/head, followed by observation for 24 hours. Thereafter, each mouse was collected her blood and urine for measuring clinical test items as indexes for renal and liver functions. […] As a result, adenosine N1-oxide, 3′-glucosyladenosine N1-oxide, 5‘-glucosyladenosine N1-oxide, 5’-adenosinme diphosphate N1-oxide, and 5′-adenosine triphosphate N1-oxide have an LD50 of at least 1,000 mg/kg, respectively. Thus, these compounds are judged as substances safely administrable to humans.

[2] = Solubility in solvents such as water; type: physicochemical
[3] = tested on: medium periodontal diseases; assay: Volunteer test 2: tooth mobility after mouthwash use, concentration series; type: in vivo, human; details: aqueous mouthwash, % by mass, Experiment 6
Excerpt: • A: A distinct improvement in tooth mobility is observed on a tooth mobility test (or periodontometry) with a pincette compared with that before initiating the test; • B: Somewhat improvement in tooth mobility is observed on a tooth mobility test with a pincette compared with that before initiating the test; and • C: No improvement or rather aggravation is observed on a tooth mobility test with a pincette compared with that before initiating the test.
For adenosine N1-oxide, which had marked the highest improvement effect on periodontal diseases in Experiment 5, it was examined in more detail for its improvement action on periodontal diseases: Eight females, 20- to 30-year-old, as subjects, who were healthy except for suffering from medium periodontal diseases (with a periodontal pocket depth of 3 mm or deeper but less than 6 mm), were subjected to a volunteer test similarly as in Experiment 5 except for using six types of aqueous solutions containing 0.001 to 7.5% adenosine N1-oxide and setting a test period of seven months. […]
The subjects were allowed to brush their teeth with the same toothpaste as used in Experiment 5. […] Before initiating the test, a dental hygienist under a doctor's guidance evaluated the conditions of gingivitis for each subject […] based on the same criteria as shown in Experiment 5.

[4] = 1000 mg/kg, intraperitoneal, 2 g in 100 mL D-PBS, one milliliter/head, mice of 20 g, observation for 24 hours, read-out: LD50

Nc1c2ncn([C@@H]3O[C@H](CO)[C@@H](O[C@H]4O[C@H](CO)[C@@H](O)[C@H](O)[C@H]4O)[C@H]3O)c2nc[n+]1[O-]
LD50 at 24 h [1, 4]: ≥ 1000 mg/kg
solubility in solvents such as water compared to adenosine N1-oxide [2]: higher solubility

Nc1c2ncn([C@@H]3O[C@H](CO[C@H]4O[C@H](CO)[C@@H](O)[C@H](O)[C@H]4O)[C@@H](O)[C@H]3O)c2nc[n+]1[O-]
LD50 at 24 h [1, 4]: ≥ 1000 mg/kg
solubility in solvents such as water compared to adenosine N1-oxide [2]: higher solubility

Nc1c2ncn(C3OC(COP(=O)(O)OP(=O)(O)O)C(O)C3O)c2nc[n+]1[O-] (centres unmarked) [5′-adenosine diphosphate N1-oxide]
solubility in solvents such as water compared to adenosine N1-oxide [2]: higher solubility

Nc1c2ncn([C@@H]3O[C@H](COP(=O)(O)OP(=O)(O)OP(=O)(O)O)[C@@H](O)[C@H]3O)c2nc[n+]1[O-] [5′-adenosine triphosphate N1-oxide]
solubility in solvents such as water compared to adenosine N1-oxide [2]: higher solubility

Nc1c2ncn([C@@H]3O[C@H](CO)[C@@H](O)[C@H]3O)c2nc[n+]1[O-] [adenosine N1-oxide]
LD50 at 24 h [1]: ≥ 1000 mg/kg
concentrations at which periodontal diseases are distinctly, effectively prevented and/or treated [3]: ≥ 0.5%
